Patent publication US9012493B2, “1-heterodiene derivative and pest control agent” (Nippon Soda Co., Ltd., priority 2009, dated 2015)

Key:
Type in all cases: in vivo
[1] = tested on: Sweetpotato Whitefly (Bemisia Tabaci); assay: Efficacy test against sweetpotato whitefly, sprayed tomato leaf; details: 125 ppm, emulsifiable concentrate diluted with water, adults (type B), after 2 days, 25° C.
Description: (§1) Test Examples of the pest control agent thus obtained according to the present invention are shown below. In respective Test Examples, the insecticidal rate (%) was determined by the following calculation equation. Insecticidal rate (%)=(number of dead pests/number of released pests)×100
The emulsifiable concentrate obtained according to Formulation of Formulation Example 2 was diluted with water so as to control the concentration of the compound to 125 ppm. The diluted solution was sprayed over a tomato leaf obtained by cutting and then air-dried. Using absorbent cotton, the leaf was fixed to a flask so that a front surface of the leaf faces upward. Seven pairs of adults of sweetpotato whitefly (type B) were inoculated in this container, and the container was placed in a temperature-controlled room at a temperature of 25° C. and a humidity of 65%. After 2 days, life and death were examined and the insecticidal rate was determined. The test was repeated twice.

[2] = tested on: Rice Armyworm (Mythimna Separata); assay: Efficacy test against rice armyworm, corn leaf dip; details: 125 ppm, emulsifiable concentrate diluted with water, corn leaves immersed, second instar larvae, after 5 days, 25° C.
Description: as §1
The emulsifiable concentrate obtained according to Formulation of Formulation Example 2 was diluted with water so as to control the concentration of the compound to 125 ppm. Leaves of corn were immersed in this diluted solution for 30 seconds and then air-dried. The leaves were put in a petri dish on which a filter paper is laid, and then five second instar larvae of rice armyworm were inoculated. After covering the petri dish with a glass lid, the petri dish was placed in a temperature-controlled room at a temperature of 25° C. and a humidity of 65%. After 5 days, life and death were examined and the insecticidal rate was determined. The test was repeated twice.

[3] = tested on: Cotton Aphid (Aphis Gossypii); assay: Efficacy test against cotton aphid, spray on cucumber plant; details: 125 ppm, emulsifiable concentrate diluted with water, sprayed over cucumber plant with nymphs, after 5 days, 25° C.
Description: as §1
The emulsifiable concentrate obtained according to Formulation of Formulation Example 2 was diluted with water so as to control the concentration of the compound to 125 ppm. Adults of cotton aphids were inoculated to a cucumber plant (approximately 10 days after sprouting) sown in a 3 sun/size pot (9 cm). After 1 day, adult aphids were removed and the diluted solution was sprayed over the cucumber plant on which delivered nymphs are parasitic. The pot was placed in a temperature-controlled room at a temperature of 25° C. and a humidity of 65%. After 5 days, life and death were examined and the insecticidal rate was determined. The test was repeated twice.

SMILES	insecticidal rate [1] [%]	insecticidal rate [2] [%]	insecticidal rate [3] [%]
C=C1SC(=Nc2ccc(C)cc2)C(=CSc2ccc3ccccc3c2)CC1(C)C (mixture of isomers) [Compound 2-88]	100	100	–
C=C1SC(=Nc2ccc(C)cc2)C(=CSc2ccc([N+](=O)[O-])cc2)CC1(C)C (mixture of isomers) [Compound 6-4]	–	100	–
C=C1SC(=Nc2ccc(C)cc2)C(=CSC2CCCCC2)CC1(C)C (mixture of isomers) [Compound 6-5]	100	100	–
C=C1SC(=Nc2ccc(C)cc2)C(=CSC2CCc3ccccc32)CC1(C)C (racemic) [Compound 2-115]	100	100	–
C=C1SC(=Nc2ccc(OC)cc2)C(=CSc2ccccc2)CC1(C)CCC=C(C)C (racemic) [Compound 2-130]	100	100	–
CC(C)=C1CC(=CSc2ccccc2)C(=Nc2ccc(Cl)cc2)S1 [Compound 1-2]	100	100	–
CC(C)=C1CC(=CSc2ccccc2)C(=[NH+]c2ccc(Cl)cc2)S1.F[B-](F)(F)F [Compound 1-3]	100	100	–
C=C1CCC(=CSc2ccccc2)C(=Nc2ccc(Cl)cc2)S1 [Compound 2-1]	100	100	–
C=C1CCC(=CSc2ccccc2)C(=Nc2ccc(C(F)(F)F)cc2)S1 [Compound 2-5]	100	100	–
C=C1CCC(=CSc2ccccn2)C(=Nc2ccc(C)cc2)S1 [Compound 2-7]	–	–	100
C=C1CCC(=CSc2ccccc2)C(=Nc2ccc(OC)cc2)S1 [Compound 2-8]	100	100	100
C=C1CCC(=CSc2ccc(F)cc2)C(=Nc2ccc(OC)cc2)S1 [Compound 2-9]	100	100	100
C=C1SC(=Nc2ccc(OC)cc2)C(=CSc2ccccc2)CC1(C)C [Compound 2-16]	100	100	100
C=C1SC(=Nc2ccc(C)cc2)C(=CSc2ccc(OC)cc2)CC1(C)C [Compound 2-18]	100	100	100
C=C1SC(=Nc2ccc(C)cc2)C(=CSc2ccccc2OC)CC1(C)C [Compound 2-19]	100	100	100
C=C1SC(=Nc2ccc(C)cc2)C(=CSc2ccc(NC(C)=O)cc2)CC1(C)C [Compound 2-21]	–	100	–
COc1ccc(N=C2SC(=C(C)C)CCC2=CSc2ccc(F)cc2)cc1 [Compound 2-22]	100	100	100
COc1ccc(N=C2SC(=C(C)C)CCC2=CSc2ccccc2)cc1 [Compound 2-23]	–	–	100
C=C1SC(=Nc2ccc(C)cc2)C(=CSc2ccc(F)cc2)CC12CCCCC2 [Compound 2-24]	100	100	–
C=C1SC(=Nc2cccc(OC)c2)C(=CSc2ccccc2)CC1(C)C [Compound 2-25]	100	100	100
C=C1SC(=Nc2ccc(C)cc2Cl)C(=CSc2ccccc2)CC1(C)C [Compound 2-26]	100	100	100
C=C1SC(=Nc2cccc(Cl)c2)C(=CSc2ccccc2)CC1(C)C [Compound 2-29]	100	100	100
C=C1SC(=Nc2ccc(OC)cc2OC)C(=CSc2ccccc2)CC1(C)C [Compound 2-30]	–	100	100
C=C1SC(=Nc2c(F)cccc2F)C(=CSc2ccccc2)CC1(C)C [Compound 2-31]	100	100	100
C=C1SC(=Nc2ccc(OC)cc2F)C(=CSc2ccccc2)CC1(C)C [Compound 2-33]	100	100	100
C=C1SC(=Nc2cccc(Cl)c2Cl)C(=CSc2ccccc2)CC1(C)C [Compound 2-37]	100	100	100

SMILES	insecticidal rate [1] [%]	insecticidal rate [2] [%]	insecticidal rate [3] [%]
C=C1SC(=Nc2ccc3c(c2)OCO3)C(=CSc2ccccc2)CC1(C)C [Compound 2-39]	100	100	100
C=C1SC(=Nc2ccc(OC)cc2C)C(=CSc2ccc(OC)cc2)CC1(C)C [Compound 2-42]	100	100	100
COc1ccc(N=C2SC(=C(C)C)CCC2=CSc2ncccn2)cc1 [Compound 2-43]	–	100	–
C=C1SC(=Nc2cc(Cl)ccc2Cl)C(=CSc2ccccc2)CC1(C)C [Compound 2-44]	100	100	–
C=C1SC(=Nc2ccc(OC)cc2)C(=CSc2ncccn2)CC1(C)C [Compound 2-47]	100	100	100
C=C1CCC(=CSc2ccccc2)C(=Nc2ccsc2)S1 [Compound 2-52]	100	100	100
C=C1SC(=Nc2ccccc2)C(=CSc2ccccc2)CC1(C)C [Compound 2-53]	100	100	100
C=C1SC(=Nc2ccccc2)C(=CSc2ccc(F)cc2)CC1(C)C [Compound 2-54]	100	100	100
C=C1SC(=Nc2ccc(OC)cc2)C(=COc2ccccc2)CC1(C)C [Compound 2-55]	100	100	100
C=C1SC(=Nc2ccc(C)cc2)C(=CSc2ccc(F)cc2)CC12CCOCC2 [Compound 2-57]	100	100	100
C=C1SC(=Nc2ccc(OC)cc2)C(=CSC2CCCC2)CC1(C)C [Compound 2-58]	100	100	100
C=C1SC(=Nc2c(C)cccc2C)C(=CSc2ccccc2)CC1(C)C [Compound 2-62]	100	100	100
C=C1SC(=Nc2ccc(C)cc2)C(=CSC(C)(C)C)CC1(C)C [Compound 2-74]	100	100	–
C=C1SC(=Nc2ccc(OC)cc2)C(=CSc2ccc(C=O)cc2)CC1(C)C [Compound 2-82]	–	100	–
C=C1SC(=Nc2ccc(OC)cc2)C(=CSc2ccc(C(F)(F)F)cn2)CC1(C)C [Compound 2-95]	100	100	–
C=C1SC(=Nc2ccc(C)cc2)C(=CSc2ccccc2CO)CC1(C)C [Compound 2-96]	–	100	–
C=C1SC(=Nc2ccc(OC)cc2)C(=CSc2cccc(Oc3ccccc3)c2)CC1(C)C [Compound 2-109]	100	–	–
C=C1SC(=Nc2ccc(C)cc2)C(=CSc2sccc2OC)CC1(C)C [Compound 2-116]	100	100	–
C=C1SC(=Nc2ccc(C)cc2)C(=CSc2cc(C)oc2C)CC1(C)C [Compound 2-123]	100	100	–
C=C1SC(=Nc2ccc(C)cc2)C(=CSc2cc(C(F)(F)F)ccn2)CC1(C)C [Compound 2-126]	–	100	100
C=C1SC(=Nc2ccccc2)C(=CSc2nc(C)cnc2C)CC1(C)C [Compound 2-131]	100	100	–
C=C1SC(=Nc2ccc(C)cc2)C(=CSc2nccc(OC)n2)CC1(C)C [Compound 2-133]	100	100	–
C=C1CCC(=CSc2ccccn2)C(=Nc2ccc(C)cc2)S1 [Compound 4-1]	–	100	–
C=C1SC(=Nc2ccc(OC)cc2)C(=CSc2ccccn2)CC1(C)C [Compound 4-2]	–	100	–
C=C1SC(=Nc2ccc(C)cc2)C(=CSc2nccs2)CC1(C)C [Compound 4-3]	100	–	–
C=C1SC(=Nc2ccc(OC)cc2)C(=CSc2cccs2)CC1(C)C [Compound 4-4]	100	100	–
